Like-named read-outs stand apart in the source and are kept apart here.
Tests used:
[1] = test system: patients with acute coronary syndromes undergoing PCI; assay: Example 2: bleeding (GUSTO, TIMI, ACUITY) and adverse events up to 48 hours; format: in vivo, human
Text: Multiple definitions of bleeding were used for full disclosure of bleeding risks associated with cangrelor: […] N Engl J Med 329:673-82 (1993); mild, moderate, or severe/life-threatening based on transfusion use and presence/absence of hemodynamic compromise); […] Investigators reported adverse and serious adverse events according to International Conference on Harmonization guidance (International Conference on Harmonization (ICH) Guidance Documents. U.S. Food and Drug Administration Web site. (Accessed on Oct. 8, 2009, at the FDA website beginning with “www.” and ending with “fda.gov/RegulatoryInformation/Guidances/ucm122049.htm”)).

[2] = test system: patients undergoing percutaneous coronary intervention (PCI); details: for Mortality/Q-wave MI/IDR / Mortality/Q-wave MI/Stent thrombosis: exploratory; for Angiographic complications (site reported): Abrupt vessel closure / Angiographic complications (site reported): Acute stent thrombosis / Angiographic complications (site reported): Need for urgent CABG / Angiographic complications (site reported): New thrombus or suspected thrombus / Angiographic complications (site reported): Threatened abrupt closure / Angiographic complications (site reported): Unsuccessful procedure: index PCI
Protocol: The diagnosis of non-ST-segment elevation myocardial infarction required troponin I or T greater than the upper limit of normal within 24 hours of randomization (or if troponin results were unavailable at that time, creatine kinase-myocardial band isoenzyme [CK-MB] greater than the upper limit of normal). The diagnosis of unstable angina required ischemic chest discomfort occurring at rest and lasting ≧10 minutes within the 24 hours prior to randomization and dynamic electrocardiographic changes; age ≧65 years and/or diabetes mellitus were also required.
The primary efficacy endpoint was the composite of mortality, myocardial infarction, or ischemia-driven revascularization at 48 hours. The primary analysis was performed on a modified intent-to-treat population. Confirmatory analyses were performed on an intent-to-treat population. Secondary endpoints included the individual rates of mortality, myocardial infarction, new Q-wave myocardial infarction, ischemia-driven revascularization, abrupt vessel closure, or stroke at 48 hours. Mortality at 30 days and 1 year was also recorded. The clinical events committee adjudicated myocardial infarction, Q-wave myocardial infarction, ischemia-driven revascularization, stent thromboses, and stroke (ischemic or hemorrhagic). The definition of stent thrombosis was similar to the Academic Research Consortium definition of definite stent thrombosis. After review of the prespecified analyses, two exploratory endpoints less reliant on periprocedural biomarker ascertainment were examined. The exploratory endpoints, which were composed of prespecified and adjudicated endpoints, were the composite of mortality, Q-wave myocardial infarction, or ischemia-driven revascularization and the composite of mortality, Q-wave myocardial infarction, or stent thrombosis. Bleeding and adverse events through 48 hours were compared.
All efficacy analyses were performed on the modified intent-to-treat population, defined as all randomized patients who received at least one dose of study drug and underwent the index PCI. All safety-related analyses were performed on the safety population, which included all patients who received at least one dose of assigned study drug. Patients in the safety analyses were assigned to a treatment arm based on treatment actually received, not as randomized. Intent-to-treat analyses are also presented for full disclosure of results. All statistical tests were two-tailed using a level of significance of 0.05. […] Logistic regression was also used to analyze the majority of the remaining secondary endpoints.

## COC(=O)[C@H](c1ccccc1Cl)N1CCc2sccc2C1 [Clopidogrel, clopidogrel, reference compound]
[1]; 48-hour, safety population
  ACUITY criteria Major bleeding: 126 (2.9) no. (%)
  ACUITY criteria Minor bleeding: 663 (15.2) no. (%)
  Access site bleeding requiring radiologic or surgical intervention: 10 (0.2) no. (%)
  Any blood transfusion: 42 (1.0) no. (%)
  Any platelet transfusion: 5 (0.1) no. (%)
  Drop in hemoglobin and/or hematocrit: 63 (1.4) no. (%)
  Ecchymosis: 234 (5.4) no. (%)
  Epistaxis: 22 (0.5) no. (%)
  GUSTO criteria Mild bleeding: 739 (16.9) no. (%)
  GUSTO criteria Moderate bleeding: 34 (0.8) no. (%)
  GUSTO criteria Severe/life-threatening bleeding: 11 (0.3) no. (%)
  Hematoma <5 cm at puncture site: 222 (5.1) no. (%)
  Hematoma ≧5 cm at puncture site: 76 (1.7) no. (%)
  Hemodynamic compromise: 11 (0.3) no. (%)
  Intracranial hemorrhage: 0 (0.0) no. (%)
  Intraocular: 0 (0.0) no. (%)
  Oozing at puncture site: 319 (7.3) no. (%)
  Reoperation for bleeding: 1 (0.0) no. (%)
  Retroperitoneal: 10 (0.2) no. (%)
  TIMI criteria Major bleeding: 14 (0.3) no. (%)
  TIMI criteria Minor bleeding: 26 (0.6) no. (%)
  Thrombocytopenia: 7 (0.2) no. (%)
[1]; human, in vivo, 48 h
  Dyspnea: 0.4%
  Serious adverse events: 2.7%
  discontinuation of study drug due to an adverse event: 0.5%
[1]; safety population
  Reported adverse events: 25.7%
[2]; 30-day, ITT
  All-cause mortality: 47 (1.8) no. (%)
  IDR: 49 (1.8) no. (%)
  MI: 202 (7.6) no. (%)
  Mortality/MI/IDR: 254 (9.6) no. (%)
  Q-wave MI: 15 (0.6) no. (%)
  Stent thrombosis: 29 (1.1) no. (%)
  Mortality/Q-wave MI/IDR: 94 (3.5) no. (%)
  Mortality/Q-wave MI/Stent thrombosis: 77 (2.9) no. (%)
[2]; 30-day, MITT
  All-cause mortality: 45 (1.7) no. (%)
  IDR: 46 (1.7) no. (%)
  MI: 201 (7.6) no. (%)
  Mortality/MI/IDR: 249 (9.5) no. (%)
  Q-wave MI: 14 (0.5) no. (%)
  Stent thrombosis: 28 (1.1) no. (%)
  Mortality/Q-wave MI/IDR: 89 (3.4) no. (%)
  Mortality/Q-wave MI/Stent thrombosis: 73 (2.8) no. (%)
[2]; 30-day, Safety population
  All-cause mortality: 45 (1.7) no. (%)
  IDR: 47 (1.8) no. (%)
  MI: 203 (7.7) no. (%)
  Mortality/MI/IDR: 251 (9.5) no. (%)
  Q-wave MI: 15 (0.6) no. (%)
  Stent thrombosis: 28 (1.1) no. (%)
  Mortality/Q-wave MI/IDR: 90 (3.4) no. (%)
  Mortality/Q-wave MI/Stent thrombosis: 74 (2.8) no. (%)
[2]; 48-hour, ITT
  All-cause mortality: 19 (0.7) no. (%)
  IDR: 26 (1.0) no. (%)
  MI: 192 (7.2) no. (%)
  Mortality/MI/IDR: 213 (8.0) no. (%)
  Q-wave MI: 9 (0.3) no. (%)
  Stent thrombosis: 16 (0.6) no. (%)
  Stroke: 6 (0.2) no. (%)
  Mortality/Q-wave MI/IDR: 44 (1.7) no. (%)
  Mortality/Q-wave MI/Stent thrombosis: 36 (1.4) no. (%)
[2]; 48-hour, MITT
  All-cause mortality: 18 (0.7) no. (%)
  IDR: 24 (0.9) no. (%)
  MI: 191 (7.2) no. (%)
  Mortality/MI/IDR (primary endpoint): 210 (8.0) no. (%)
  Q-wave MI: 8 (0.3) no. (%)
  Stent thrombosis: 16 (0.6) no. (%)
  Stroke: 5 (0.2) no. (%)
  Mortality/Q-wave MI/IDR: 41 (1.6) no. (%)
  Mortality/Q-wave MI/Stent thrombosis: 34 (1.3) no. (%)
[2]; 48-hour, Safety population
  Mortality/Q-wave MI/IDR: 42 (1.6) no. (%)
  Mortality/Q-wave MI/Stent thrombosis: 35 (1.3) no. (%)
[2]; 48-hour, safety population
  All-cause mortality: 18 (0.7) no. (%)
  IDR: 25 (0.9) no. (%)
  MI: 193 (7.3) no. (%)
  Mortality/MI/IDR: 212 (8.0) no. (%)
  Q-wave MI: 9 (0.3) no. (%)
  Stent thrombosis: 16 (0.6) no. (%)
  Stroke: 5 (0.2) no. (%)
[2]; ITT
  Angiographic complications (site reported): Abrupt vessel closure: 16 (0.6)
  Angiographic complications (site reported): Acute stent thrombosis: 5 (0.2)
  Angiographic complications (site reported): Need for urgent CABG: 4 (0.2)
  Angiographic complications (site reported): New thrombus or suspected thrombus: 15 (0.6)
  Angiographic complications (site reported): Threatened abrupt closure: 9 (0.3)
  Angiographic complications (site reported): Unsuccessful procedure: 97 (3.7)
[2]; MITT
  Angiographic complications (site reported): Abrupt vessel closure: 16 (0.6)
  Angiographic complications (site reported): Acute stent thrombosis: 5 (0.2)
  Angiographic complications (site reported): Need for urgent CABG: 3 (0.1)
  Angiographic complications (site reported): New thrombus or suspected thrombus: 15 (0.6)
  Angiographic complications (site reported): Threatened abrupt closure: 9 (0.3)
  Angiographic complications (site reported): Unsuccessful procedure: 95 (3.6)
[2]; Safety population
  Angiographic complications (site reported): Abrupt vessel closure: 16 (0.6)
  Angiographic complications (site reported): Acute stent thrombosis: 5 (0.2)
  Angiographic complications (site reported): Need for urgent CABG: 3 (0.1)
  Angiographic complications (site reported): New thrombus or suspected thrombus: 15 (0.6)
  Angiographic complications (site reported): Threatened abrupt closure: 9 (0.3)
  Angiographic complications (site reported): Unsuccessful procedure: 95 (3.6)

— patent US8680052B1, “Methods of treating, reducing the incidence of, and/or preventing ischemic events” (The Medicines Company, priority 2013, dated 2014)
